# Assay results taken from PMC6414029, “Utilisation of the Prestwick Chemical Library to identify drugs that inhibit the growth of mycobacteria” (PLoS ONE, 2019).
# Where a name gives a salt, the structure may show the parent alone. Read-outs that look alike come from different tables or passages of the source.
# Assays:
# [1] = system: M. smegmatis; assay: microbe, parasite or virus in culture; format: cell-based, Mycobacterium smegmatis; conditions: liquid medium
# [2] = system: M. smegmatis; assay: MIC determination on solid agar; format: cell-based, Mycobacterium smegmatis; conditions: for MIC: read-out: Solid MIC
# Procedure: Drugs were diluted from a 10mM stock, mixed individually in 2 mLs of molten 7H10 agar and dispensed in square partitioned petri plates. Plates were incubated at 37°C and solid MIC was determined based on absence of colonies.
# [3] = system: BCG; assay: microbe, parasite or virus in culture; format: cell-based, Mycobacterium bovis BCG; conditions: for MIC: Mycobacterium tuberculosis variant bovis BCG, BCG, read-out: Liquid MIC
# [4] = system: BCG; assay: microbe, parasite or virus in culture; format: cell-based, Mycobacterium bovis BCG; conditions: for MIC: Mycobacterium tuberculosis variant bovis BCG
# [5] = system: M. tuberculosis H37Rv; assay: Alamar Blue (resazurin) MIC assay; format: cell-based, Mycobacterium tuberculosis; conditions: liquid growth media
# Procedure: To investigate the effects of repurposed compounds on growth of M. tuberculosis H37Rv using an Alamar Blue based MIC assay using the resazurin reagent. This assay was performed in 7H9 medium containing Middlebrook broth and 0.5% glycerol and supplemented with oleic acid, albumin, dextrose, and catalase. Clear- 96-well plates were inoculated with 100 μL of drug diluted with 90 μl of 7H9 medium and 10 μL DMSO. Serial 3-fold dilutions of each drug in 100 μL of 7H9 medium were prepared at various ranges. Growth controls containing no antibiotic and sterility controls without inoculation were also included. 200 μL of sterile deionized water was added to the outer perimeter wells to prevent evaporation during plate incubation. Plates were incubated plate at 37°C for 3–4 days. After incubation, the plates were removed and 10 μL of resazurin (0.02% w/v) was added to each well that contained bacteria. Assay plates were reincubated at 37°C for 24–48 hours and visually assessed for colour development. OD 570 nm readings were taken to provide further quantitation provide an interpretation of the dose response of the bacterium to repurposed compounds.
# [6] = system: HepG2 cells; assay: HepG2 cytotoxicity assay (CellTitre-Glo); format: cell-based
# Procedure: Actively growing HepG2 cells were removed from a T-175 tissue culture flask with 5 mL of Eagle’s MEM containing 10% FBS/1%NEAA/1% Penicillin and Streptomycin) and mixed with gentle pipetting. […] The cell suspension was added to 250 mL of the same medium at a final density of […]. […] Plates were allowed to incubate at 37°C at a relative humidity of 80% and 5% CO2 for 48 hours. After incubation, the plates were allowed to equilibrate at room temperature for 30 mins before 25 μL of CellTitre-Glo (Promega) reagent was added to each well using a multichannel pipette. Plates were left at room temperature for 30 mins before relative luminescence was read using a BMG Labtech POLARstar Omega plate reader.
# [7] = system: BCG over-expressing EchA12; assay: microbe, parasite or virus in culture; format: cell-based, Mycobacterium bovis BCG
# [8] = system: BCG over-expressing AroB; assay: microbe, parasite or virus in culture; format: cell-based, Mycobacterium bovis BCG
# [9] = Mycolicibacterium smegmatis, M. smegmatis, 7H10 solid agar, absence of colonies
# [10] = read-out: Solid MIC, BCG, 7H10 solid agar, absence of colonies
# [11] = read-out: Solid MIC, BCG, solid agar, values given in mM
# [12] = M. smegmatis, 7H10 solid agar, absence of colonies
SMILES,MIC ([1]; Mycolicibacterium smegmatis) [µM],MIC [1] [µM],"MIC [2, 9] [µM]",Liquid MIC [3] [µM],MIC [3] [µM],"MIC [4, 10] [mM]",also measured
CCCCC(CC)CNC(=N)NC(=N)NCCCCCCNC(=N)NC(=N)NCC(CC)CCCC (stereo not drawn) [Alexidine],6.15,,,,,,
CN1CCc2cccc3c2[C@H]1Cc1ccc(O)c(O)c1-3 [Apomorphine],,241.7,625,,,,
COc1ccc(CCN2CCC(Nc3nc4ccccc4n3Cc3ccc(F)cc3)CC2)cc1 [Astemizole],,,,17.78,17.8,0.05,"MIC [4, 11]: ~0.05 mM"
CC(=O)OC[C@H]1O[C@@H]([S-])[C@H](OC(C)=O)[C@@H](OC(C)=O)[C@@H]1OC(C)=O.CCP(CC)CC.[Au+] [Auranofin],,0.51,,,,,"Solid MIC relative to liquid MIC ([2]; M. smegmatis): 12 fold; MIC [2, 12]: 6.0 µM; MIC [5]: 0.27 µM; IC50 ([6]; 48 hours): 3 µM"
[H]/N=C(\N/C(=N/[H])NCCCCCCNC(=N)NC(=N)Nc1ccc(Cl)cc1)Nc1ccc(Cl)cc1 [Chlorhexidine],1.98,1.95,16,,,,
CCN(CC)CCOc1ccc(C(=C(Cl)c2ccccc2)c2ccccc2)cc1 [Clomiphene citrate],9.03 to 26.6,9.03,37.5,,,,MIC ([5]; Mycobacterium tuberculosis): 7.59 µM
O=c1c2ccccc2[se]n1-c1ccccc1 [Ebselen],10.3,,,,,,"MIC ([5]; Mycobacterium tuberculosis): 18.5 µM; IC50 ([6]; Homo sapiens, HepG2, 48 hours): 45 µM"
CC(NCCC(c1ccccc1)c1ccccc1)c1ccccc1 (stereo not drawn) [Fendiline hydrochloride],77 to 828,77.57,15.6,,,,
CS(=O)(=O)c1ccc([C@@H](O)[C@@H](CF)NC(=O)C(Cl)Cl)cc1 [Florfenicol],,,,0.67,0.7,~0.005,"Solid MIC relative to liquid MIC [4]: 5 fold; Solid MIC ([4]; 7H10 solid agar, absence of colonies, listed as Florfenciol): 6 µM; MIC ([5]; Mycobacterium tuberculosis): 25.4 µM; IC50 ([6]; Homo sapiens, HepG2, 48 hours): > 250 µM; MIC in the absence of EchA12 over-expression, compared with wild-type BCG [7]: unchanged; MIC ([7]; Mycobacterium tuberculosis variant bovis BCG, BCG, read-out: MIC upon over-expression of EchA12): > 12 µM"
O=C1NCN(c2ccccc2)C12CCN(CCCC(c1ccc(F)cc1)c1ccc(F)cc1)CC2 [Fluspirilene],,827.5,,,,,
"Fc1ccc(C(OCCN2CCN(CCCc3ccccc3)CC2)c2ccc(F)cc2)cc1 [GBR 12909, Vanoxerine]",18.6,,62.5,,20.5,0.0282,"MIC ([5]; Mycobacterium tuberculosis): 26.6 µM; IC50 ([6]; Homo sapiens, HepG2, 48 hours): 55 µM; MIC in the absence of AroB over-expression, compared with wild-type BCG [8]: unchanged; MIC ([8]; Mycobacterium tuberculosis variant bovis BCG, BCG, read-out: MIC upon over-expression of AroB): > 50 µM"
Cc1cnc(C(=O)NCCc2ccc(S(=O)(=O)NC(=O)NC3CCCCC3)cc2)cn1 [Glipizide],,,,191.10,191,,
"CN1C2CCCC1CC(NC(=O)c1nn(C)c3ccccc13)C2 (stereo not drawn) [Granisteron, Granisetron]",,,,210.60,211,≥ 0.5,"MIC [4, 11]: > 0.5 mM"
CO[C@@H]1[C@@H](O[C@@H]2O[C@H](C)[C@@H](O[C@H]3C[C@@](C)(O)[C@@H](OC(=O)CC(C)C)[C@H](C)O3)[C@H](N(C)C)[C@H]2O)[C@@H](CC=O)C[C@@H](C)[C@@H](O)/C=C/C=C/C[C@@H](C)OC(=O)C[C@H]1OC(C)=O [Josamycin],,,,0.10,0.1,> 0.1,
"C=C1c2c(Cl)ccc(O)c2C(=O)C2=C(O)[C@]3(O)C(=O)C(C(N)=O)=C(O)[C@@H](N(C)C)[C@@H]3[C@@H](O)[C@H]12 [Meclocyline sulfosalicylate, meclocycline sulfosalicylate]",0.1,,,,,,"MIC [2, 12]: 0.20 µM; MIC ([2]; Mycolicibacterium smegmatis): 0.2 µM"
COC(=O)C1=C(C)NC(C)=C(C(=O)OCC(C)C)C1c1ccccc1[N+](=O)[O-] (stereo not drawn) [Nisoldipine],,396.2,100,,,,
